Source: patent publication US20080275111A1, “Novel Use of Lignan Compounds” (priority 2005, published 2008)

Experiments:
[1] = Transmission test to the brain (brain uptake clearance, LC/MS); assay type: in vivo; conditions: male SD rat, 1 mg/kg intravenous
Protocol: PE50 tubes are independently inserted into the femoral vein and femoral artery of a 250 g male SD rat, and syringes individually containing physiological saline solution and heparin (25 I.U.) are connected to tubes, respectively. The macelignan isolated and purified in Example 1 was dissolved in DMSO, and intravenously administered into the rat in the amount of 1 mg/kg. 400 μl of the blood samples were collected from the artery at 0.5, 1, 1.5 and 2 minutes after administration. After last sampling, the head of the rat was rapidly cut, and the brain tissue was extracted and slightly washed with physiological saline solution.
The blood sample prepared in the Example <7-1> was centrifuged at 3,000 rpm for 5 minutes to obtain 100 μl of blood plasma. 500 μl of ethylacetate was added into the blood plasma and the mixture was agitated with a vortex mixer for 10 minutes. Then, the mixture was centrifuged at 3,000 rpm for 5 minutes to obtain 400 μl of the supernatant. […]
The weight of the brain tissue sample prepared in the Example <7-1> was measured, and then saline solution corresponding to the weight of 2 times higher than that of the brain tissue was added into the brain tissue and the mixture was homogenized. […]
The blood sample and brain tissue sample treated in the Example <7-2> were introduced into the LC/MS system, and then the LC/MS analysis was performed according to the method of the Example <7-3> and the area of a macelignan peak was obtained on the chromatograph. The concentration of macelignan was calculated by using the area of the macelignan peak through the standard curve prepared in the Example <7-3>.
In a time-concentration graph of macelignan obtained in the blood sample through the Example <7-4>, AUC0^t (Area Under Curve: AUC) from 0 to the last sample time “tlast”, was obtained with a trapezoidal method (Schaum's Outline of Mathematica, MaGraw-Hill, 2000). Additionally, the amount(Xb) of macelignan was calculated using the concentration of the brain tissue sample. AUC of macelignan may be calculated using the mathematical equation 1. […]

[2] = tested on: NO; assay: NO production in LPS-activated microglia (Griess reagent); assay type: cell-based, mouse; conditions: 1 μg/ml LPS
Protocol: When the microglia is activated, the expression of NO as a mediator of nerve transmission and immune response is induced (Liu, B. et al., Ann. N.Y. Acad. Sci., 962:318-331, 2002). Therefore, the effect of the lignan compound of the present invention on the NO production in microglia was examined. First, only the neocortex was isolated from the brain of 1 day-old mouse. Then, a microglia-astroglia mixture was prepared according to a method known in the art (Kim, H. Y. et al., J. Immunol., 171:6072-6079, 2003). The microglia-astroglia mixture was then divided at a ratio of 4 flasks/1 head and cultured in MEM medium containing 10% FBS in a 75 cm^2 flask for 2 weeks. The microglia was separated from the cultured cells and cultured in MEM medium containing 5% FBS for 24 hours. The tissue-cultured microglia was inoculated into MEM medium containing 5% FBS at a concentration of 1.5×10^4 cells/well and cultured in a 96-well plate. After 1 day of cultivation, the microglia was treated with 1 μg/ml of LPS (Sigma) to induce activation of the microglia. […] Then, the cell-cultured medium was collected and NO production was measured. The NO production was analyzed by measuring the amount of nitrite as a stable metabolite of NO in the cell-cultured medium using Griess reagent kit (Molecular Probe). […] Then, the absorbance of the resulting solution was measured with a microplate reader at 548 nm.

With `COc1cc(C[C@H](C)[C@H](C)Cc2ccc3c(c2)OCO3)ccc1O` [macelignan, (8R,8′S)-7-(3,4-methylenedioxyphenyl)-7′-(4-hydroxy-3-methoxyphenyl)-8,8′-dimethylbutane] the clearance ([1]; brain and plasma, Xb/AUC, read-out: CLuptake (brain uptake clearance)) was 0.203 ± 0.039 mL/min, the “Xb (amount of macelignan in the brain)” value ([1]; brain taken after the 2 minute sample) was 7.90 ± 1.52 µg and the AUC ([1]; plasma 0 to 2 minutes, trapezoidal method) was 648 ng·h/mL. For the same molecule, the “NO production induced by LPS” value ([2]; compound 2.5 and 10 μM, 16 or 24 hours) was “dose-dependently inhibited” and the inhibition at 10 µM ([2]; Mus musculus, 10 μM compound, read-out: inhibition rate of NO production) was ~90%.
